# Tests used:
# NK1 [1] = molecular target: T1, NK1 (Homo sapiens, UniProt P14210); assay: Binding of lysine analogues to NK1 (unpublished data); conditions: A. G. S.
# NK1 [2] = molecular target: T1, NK1; assay: 1H-15N TROSY-HSQC NMR chemical shift titration of 15N-labelled NK1; format: binding; design: made in house; host or cells: Pichia pastoris; conditions: steady-state binding constants; piperazine-like compounds; 0.18 mM NK1, pH 7.2, 310 K; read-out: KD in NMR
# Procedure: Ligand screening was performed by monitoring the chemical shift variations in ^1H-^15N TROSY-HSQC NMR spectra of the uniformly [^15N]-labelled NK1 protein (Fragai et al. 2015, in prep.) upon the addition of increasing concentrations of the investigated compounds.[43]–[45] The experiments were performed using 0.18 mM protein samples in 25 mM Tris, 100 mM NaCl and 0.01% sodium azide, at pH 7.2 with 10% D2O. The spectra were recorded at 310 K on a Bruker AVANCE 900 MHz spectrometer equipped with a TXI cryo-probe. Sample solutions were prepared from 1 M or 100 mM DMSO stock solutions of the ligands. The dissociation constant values (KD) were calculated by plotting the weighted average ^1H and ^15N chemical shifts of the residues experiencing significant variations as a function of ligand concentration added during the titration and considering the one site binding model.[46]
# [3] = test system: MET downstream signalling (Erk 1/2, Akt) in Vero cells; assay: MET, Erk1/2 and Akt phosphorylation assay in NK1-stimulated Vero cells (Western blot); format: cell-based; conditions: Vero cells stimulated with NK1
# Procedure: We evaluated the effect of piperazine-like compounds and MB605 on Vero cells by assessing MET, Erk 1/2 and Akt phosphorylation in response to stimulation using […] NK1. MB605 was dissolved in DMSO, which limited the range of concentrations tested to ≤1 mM in order to avoid solvent effects on cell function/viability. The water-soluble piperazine-like compounds, in contrast, could be tested at concentrations up to 100 mM.
# Fig. 6 Biological activity of the piperazine-like compounds and MB605. (a–e) Vero cells expressing the receptor endogenously on their cell surface were stimulated with HGF/SF or NK1 and phosphorylation of MET and downstream targets Akt and Erk1/2 was analysed. Piperazine-like compounds HEPES (a), (H)EPPS (b), MES (c), MOPS (d) and CAPS (e) were tested at 100 mM (lanes 4), 10 mM (lanes 5), 1 mM (lanes 6) and 100 μM (lanes 7) concentration in the presence of 1 nM NK1. To control for activating or inhibiting effects of the compounds independently of MET, piperazine-like compounds were tested on cells at 100 mM without stimulation by NK1 (lanes 3). Biological activity of MB605 (f) was investigated at 1 mM (lane 5), 100 μM (lane 6) and 10 μM (lane 7) in the presence of a constant concentration of DMSO (0.1%). A solvent control (0.1% DMSO, lane 3) was included in order to account for the effect of DMSO on the cells. A positive control (1 nM NK1 in the presence of 0.1% DMSO) is shown in lane 4. In all experiments, un-stimulated cells served as negative control (lanes 1) while cells stimulated with 1 nM NK1 served as positive control (lanes 2).
# The ability of MB605 and the piperazine-like compounds to inhibit MET, Erk and Akt phosphorylation in the presence of NK1 was tested using mammalian Vero cells as described by Ferraris et al.[47] and further details are given in the ESI ^† section of the manuscript. […]
# For MET, Erk1/2 and Akt phosphorylation assays, Vero cells were seeded at 2.1 × 10^5 cells we ll -1 (2 ml we ll -1) in 6-well plates and grown to 90% conf luence in 10% FCS/DMEM media and then switched to serum-free medium (to avoid any growth f actors present in the serum).
# 24 hours post starvation the cells were stimulated for 5 min at 37°C with each individual piperazine -like compounds as well as with NK1 (1 nM) pre-incubated with different concentrations of the piperazine- like compounds (100 mM, 10 mM, 1 mM and 100 μM) or MB605 (1 mM, 100 μM and 10 μM). Stimulations with either 0. 1% DMS O or 1 nM of NK1 […]
# solution were used as a negative and a positive control, respectively. The cells were then washed in PBS buffer, lysed on ice f or 30 min and frozen at -80 °C until further analysis. For
# [4] = molecular target: T2, lysine-binding pocket of the kringle domain of NK1 (Homo sapiens, UniProt P14210); assay: Soaking into NK1 apo crystals, X-ray crystallography; conditions: soaked into NK1 apo crystals
# T2 construct: made in house; host or cells: Pichia pastoris
# Procedure: Next, three classes of piperazine-like sulphonated compounds containing piperazine ((H)EPPS and PIPES), morpholine (MES and MOPS), or cyclohexane (CHES and CAPS) rings were studied for their binding to NK1 (Table 1), alongside another five sulphonated compounds selected from a chemical fragment library (Table 2).
# NK1 buffered in 150 mM NaCl, 50 mM Tris, pH 7.5 (apo-NK1 and all soaking experiments) was concentrated to ∼20 mg mL^–1 using a Vivaspin device with a 10 kDa cut-off membrane (Sartorius Biolab). Crystallisation was carried out in Linbro plates by the vapour diffusion hanging drop technique using a protein : precipitant ratio of 1 : 1 at 20 °C. Previously NK1 has been crystallised in 18% PEG 4000, 200 mM sodium acetate and 150 mM Tris pH 8.5 as precipitant.[19] Here final crystallisation conditions (19% PEG 4000, 200 mM sodium acetate and 150 mM Tris pH 7.5) were optimised around those to achieve high-resolution apo structure. Details of compound soaking, X-ray data collection and structure determination are given in the ESI ^† section of the manuscript. […]
# For this, 1 M stock solutions were prepared in DMSO (fragments) or water (piperazine- like compounds) and the pH adjusted to a value within their buffering range with either HCl or NaOH. The seven piperazine- like compounds and their respective pH are: HEPES (pH 7.6), (H)EPPS (pH 7.4), PIPES (pH 7.0), MES (pH 5.8), MOPS (pH 7.2), CHES (pH 8.6) and CAPS (pH 9.7). Secondary stocks of the compounds at 50 mM were prepared in the […]
# respective mother liquor and soaked for up to 48 hours.
# MB605 was solubilised in 50% DMSO at 20 mM concentration (1% f inal DMSO concentration in the drop) in order to minimize adverse effects of DMSO on the protein crystal. 25% ethylene glycol was used as the cryoprotective agent.
# X-ray data collection and processing
# X-ray datasets were collected either at the European Synchrotron Radiation Facility (ESRF, Grenoble, France), the Diamond Light Source (DLS, Oxford, UK) or in-house using the X8 PROTEUM (Bruker AXS) at the Department of Biochemistry, University of Cambridge.
# Datasets of at least 180° were collected. Raw data collected at synchrotrons were integrated, merged, scaled and reduced using DENZO and […].2 Raw data […]
# collected in- house were integrated, merged, scaled and reduced using the PROTEUM 2 software package .3 The CCP4 suite of crystallographic programs (Collaborative
# NK1 [5] = molecular target: T1, NK1; assay: SPR steady-state binding to immobilized NK1 (Biacore T100); design: made in house; host or cells: Pichia pastoris; conditions: steady-state binding constants; piperazine-like compounds; immobilized NK1, PBS pH 7.4; read-out: KD in SPR
# Procedure: Binding constants of piperazine-like compounds and fragments were determined using a Biacore T100 instrument. NK1 was immobilized on a CM5 chip by amine coupling to a density of 6000 RU. Compounds were stored as 100 mM stock solutions in water and serial dilutions were prepared in the running buffer (PBS pH 7.4, 0.05% Tween 20). The compound solutions were injected onto the surface of the chip at a flow rate of 30 μL min^–1, contact time was 1 min and dissociation time 1 min. Sensorgrams were analysed using the Biacore T100 evaluation software and the binding constants determined.
# NK1-MET complexes = test system: NK1-MET complexes; design: method as in Lauris Kemp, personal communication; conditions: buffers containing 50 mM HEPES; ref Lauris Kemp, personal communication; cited from earlier work
# T1 sequence (P14210 32-210 isoform P14210-6 limits assumed): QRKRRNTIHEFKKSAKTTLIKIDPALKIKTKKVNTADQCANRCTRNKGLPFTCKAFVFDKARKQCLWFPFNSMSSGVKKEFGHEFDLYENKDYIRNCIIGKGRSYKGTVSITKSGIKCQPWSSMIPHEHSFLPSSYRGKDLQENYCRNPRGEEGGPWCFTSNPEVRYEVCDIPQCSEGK
# T2 sequence (P14210 32-210 isoform P14210-6 limits assumed): as above
SMILES,binding to NK1 (NK1 [1]),Kd (NK1 [2]) [µM],Inhibition of phosphorylation of Erk 1/2 and Akt (S473) ([3]; compound 10 mM (lane 5)),Inhibition of phosphorylation of Erk 1/2 and Akt (S473) ([3]; compound 100 mM (lanes 4)),binding in the lysine-binding pocket (crystal structure) [4],Kd (NK1 [5]) [µM],formation of NK1-MET complexes (NK1-MET complexes)
"NC[C@H]1CC[C@H](C(=O)O)CC1 [AMCHA, trans-4-(aminomethyl)cyclohexane-1-carboxylic acid]",neither EACA or AMCHA binds NK1,,,,,,
O=S(=O)(O)CCCNC1CCCCC1 [CAPS],,1400 ± 500,active,Inhibition of phosphorylation,bind the lysine-binding pocket of NK1,1200 ± 200,
O=S(=O)(O)CCCN1CCOCC1 [MOPS],,4700 ± 1700,,Inhibition of phosphorylation,bind the lysine-binding pocket of NK1,7000 ± 1000,
"O=S(=O)(O)CCN1CCN(CCO)CC1 [HEPES, 4-(2-hydroxyethyl)-1-piperazineethanesulfonic acid]",,3300 ± 400,,Inhibition of phosphorylation,bound into the lysine-binding pocket,2400 ± 400,inhibited
"NCCCCCC(=O)O [EACA, ε-aminocaproic acid]",neither EACA or AMCHA binds NK1,,,,,,

# — publication PMC6054100, “Exploring the chemical space of the lysine-binding pocket of the first kringle domain of hepatocyte growth factor/scatter factor (HGF/SF) yields a new class of inhibitors of HGF/SF-MET binding” (Chemical Science, 2015)
